The test relates to BDF1 mice, Adenocarcinoma 755 s.c., tumor weight T/C. Nature of the test: NCI In Vivo Anticancer Drug Screen. Data for tumor model Adenocarcinoma 755 (subcutaneous) in B6D2F1 (BDF1) mice. The conditions noted are these: endpoint: mean tumor weight, higher = larger tumour. In outline:
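In vivo antitumor screen on a transplantable tumor line. Result equals the measure in compound-treated animals divided by the same measure in vehicle controls.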

[1] abbreviates: dose: 3.9 mg/kg/injection, schedule: Q01DX011 (ip), vehicle: methylcellulose (MC).
The mark [2] stands for this setting: dose: 62.5 mg/kg/injection, schedule: Q01DX011 (ip), vehicle: methylcellulose (MC).
Setting [3] is: dose: 125.0 mg/kg/injection, schedule: Q01DX011 (ip), vehicle: methylcellulose (MC).
[4] abbreviates: dose: 25.0 mg/kg/injection, schedule: Q01DX011 (ip), vehicle: saline.
[5] abbreviates: dose: 50.0 mg/kg/injection, schedule: Q01DX011 (ip), vehicle: saline.
The mark [6] stands for this setting: dose: 15.0 mg/kg/injection, schedule: Q01DX011 (ip), vehicle: carboxymethylcellulose (CMC).
The mark [7] stands for this setting: dose: 31.0 mg/kg/injection, schedule: Q01DX011 (ip), vehicle: carboxymethylcellulose (CMC).
[8] abbreviates: dose: 45.0 mg/kg/injection, schedule: Q01DX011 (ip), vehicle: carboxymethylcellulose (CMC).
The mark [9] stands for this setting: dose: 62.0 mg/kg/injection, schedule: Q01DX011 (ip), vehicle: carboxymethylcellulose (CMC).

The values that follow come from PubChem BioAssay AID180 (DTP/NCI, 2004).

Several values for one entry are separate records, joined by “and”; a condition that tells them apart may be missing. Equal entries are not always repeated.

Broadly, the T/C is the ratio of treated to control. `CO[C@@H]([CH2][Hg][S]C#N)[C@@H]([CH2][Hg][S]C#N)OC`: the T/C is 56 % of control (dose: 9.5 mg/kg/injection, schedule: Q01DX011 (ip), vehicle: carboxymethylcellulose (CMC)) and 57 % of control (dose: 18.75 mg/kg/injection, schedule: Q01DX011 (ip), vehicle: carboxymethylcellulose (CMC)).
Consider `SCc1ccccn1`, for which the T/C by setting is: (dose: 37.8 mg/kg/injection, schedule: Q01DX011 (ip), vehicle: carboxymethylcellulose (CMC)) 109 % of control; (dose: 300.0 mg/kg/injection, schedule: Q01DX011 (ip), vehicle: carboxymethylcellulose (CMC)) 97 % of control.
Take `Clc1cccc(CSc2ncnc3nc[nH]c23)c1`: the T/C reads like this: under setting [1], 56 % of control; (dose: 7.8 mg/kg/injection, schedule: Q01DX011 (ip), vehicle: methylcellulose (MC)) 57 % of control; (dose: 15.6 mg/kg/injection, schedule: Q01DX011 (ip), vehicle: methylcellulose (MC)) 20 % of control; (dose: 31.25 mg/kg/injection, schedule: Q01DX011 (ip), vehicle: methylcellulose (MC)) 3 % of control and 7 % of control; under setting [2], 5 % of control.
Consider `C[C@]12CCCC[C@@H]1CC[C@@H]1[C@@H]2[C@@](C)(O)C[C@@]2(C)[C@H]1CC[C@]2(C)O`, for which, where the note is “dose: 300.0 mg/kg/injection, schedule: Q01DX011 (sc), vehicle: steriod suspending solution”, the T/C was 79 % of control.
On to `CC(C)Cn1cnc2c(=S)nc(N)[nH]c21`, for which the T/C under setting [1] is 5 % of control.
`CCCCCCCCCCCCNCCCCCCCCCCCC`: the T/C (dose: 2.5 mg/kg/injection, schedule: Q01DX011 (ip), vehicle: other) was 41 % of control.
For the compound `CCc1c(Cl)nc(N)nc1Nc1ccccc1Cl`, the T/C reads like this: (dose: 15.0 mg/kg/injection, schedule: Q01DX011 (ip), vehicle: methylcellulose (MC)) 105 % of control; (dose: 62.0 mg/kg/injection, schedule: Q01DX011 (ip), vehicle: methylcellulose (MC)) 103 % of control; under setting [3], 101 % of control.
With `CC1CN1P(=O)(N1CCCC1)N1CC1C` (centres undefined), the T/C reads like this: (dose: 6.3 mg/kg/injection, schedule: Q01DX011 (ip), vehicle: saline) 73 % of control; (dose: 12.5 mg/kg/injection, schedule: Q01DX011 (ip), vehicle: saline) 58 % of control; under setting [4], 19 % of control and 20 % of control; under setting [5], 2 % of control and 3 % of control.
`CCCCn1cnc2c([N+](C)(C)C)ncnc21`: the T/C is 66 % of control (dose: 3.75 mg/kg/injection, schedule: Q01DX011 (ip), vehicle: carboxymethylcellulose (CMC)); 33 % of control and 38 % of control under setting [6].
On to `Nc1nc(N)c2cnnn2n1`, for which the T/C is 83 % of control under setting [4] and 116 % of control (dose: 75.0 mg/kg/injection, schedule: Q01DX011 (ip), vehicle: saline).
On to `Oc1ccc2ccccc2c1N=Nc1ccc(F)cc1`, for which the T/C under setting [6] is 70 % of control; the T/C (dose: 25.0 mg/kg/injection, schedule: Q01DX011 (ip), vehicle: carboxymethylcellulose (CMC)) is 104 % of control; the T/C under setting [7] was 37 % of control; the T/C under setting [8] was 33 % of control; the T/C (dose: 50.0 mg/kg/injection, schedule: Q01DX011 (ip), vehicle: carboxymethylcellulose (CMC)) is 30 % of control; the T/C under setting [5] is 38 % of control. Moreover, the T/C is, setting by setting: under setting [9], 46 % of control; (dose: 100.0 mg/kg/injection, schedule: Q01DX011 (ip), vehicle: carboxymethylcellulose (CMC)) 27 % of control; (dose: 100.0 mg/kg/injection, schedule: Q01DX011 (ip), vehicle: saline) 12 % of control; (dose: 200.0 mg/kg/injection, schedule: Q01DX011 (ip), vehicle: saline) 22 % of control; (dose: 224.0 mg/kg/injection, schedule: Q01DX011 (ip), vehicle: carboxymethylcellulose (CMC)) 9 % of control; (dose: 400.0 mg/kg/injection, schedule: Q01DX011 (ip), vehicle: carboxymethylcellulose (CMC)) 12 % of control and 15 % of control. Besides, the T/C runs as follows: (dose: 400.0 mg/kg/injection, schedule: Q01DX011 (ip), vehicle: saline) 15 % of control; (dose: 450.0 mg/kg/injection, schedule: Q01DX011 (ip), vehicle: carboxymethylcellulose (CMC)) 17 % of control; (dose: 600.0 mg/kg/injection, schedule: Q01DX011 (ip), vehicle: saline) 14 % of control; (dose: 800.0 mg/kg/injection, schedule: Q01DX011 (ip), vehicle: carboxymethylcellulose (CMC)) 21 % of control; (dose: 1600.0 mg/kg/injection, schedule: Q01DX011 (ip), vehicle: carboxymethylcellulose (CMC)) 8 % of control.
`NC1C(O)C(O)C(Nc2ncnc3nc[nH]c23)OC1C(O)CO` (centres undefined): the T/C reads like this: (dose: 0.18 mg/kg/injection, schedule: Q## X000 (ip), vehicle: carboxymethylcellulose (CMC)) 65 % of control; (dose: 0.35 mg/kg/injection, schedule: Q## X000 (ip), vehicle: carboxymethylcellulose (CMC)) 65 % of control; (dose: 0.7 mg/kg/injection, schedule: Q## X000 (ip), vehicle: carboxymethylcellulose (CMC)) 67 % of control; (dose: 1.35 mg/kg/injection, schedule: Q## X000 (ip), vehicle: carboxymethylcellulose (CMC)) 107 % of control.
With `O=C1c2ccccc2C(=O)c2c1c(O)c1ccccc1c2O`, the T/C (dose: 100.0 mg/kg/injection, schedule: Q#A X022 (im), vehicle: other) is 92 % of control; the T/C (dose: 100.0 mg/kg/injection, schedule: Q#A X022 (sc), vehicle: other) is 82 % of control; the T/C (dose: 200.0 mg/kg/injection, schedule: Q#A X022 (im), vehicle: other) is 79 % of control; the T/C (dose: 200.0 mg/kg/injection, schedule: Q#A X022 (sc), vehicle: other) is 82 % of control; the T/C (dose: 300.0 mg/kg/injection, schedule: Q#A X022 (im), vehicle: other) is 73 % of control; the T/C (dose: 300.0 mg/kg/injection, schedule: Q#A X022 (ip), vehicle: other) was 29 % of control. Further, the T/C is, setting by setting: (dose: 300.0 mg/kg/injection, schedule: Q#A X022 (sc), vehicle: other) 52 % of control; (dose: 400.0 mg/kg/injection, schedule: Q#A X022 (im), vehicle: other) 73 % of control; (dose: 400.0 mg/kg/injection, schedule: Q#A X022 (sc), vehicle: other) 68 % of control.
On to `Cc1ccc(N2CCN(CCCN3CCN(c4ccccc4Cl)CC3)CC2)cc1`, for which the T/C by setting is: (dose: 6.0 mg/kg/injection, schedule: Q01DX011 (ip), vehicle: carboxymethylcellulose (CMC)) 84 % of control; (dose: 11.0 mg/kg/injection, schedule: Q01DX011 (ip), vehicle: methylcellulose (MC)) 29 % of control; (dose: 12.0 mg/kg/injection, schedule: Q01DX011 (ip), vehicle: carboxymethylcellulose (CMC)) 64 % of control; (dose: 22.0 mg/kg/injection, schedule: Q01DX011 (ip), vehicle: methylcellulose (MC)) 34 % of control; (dose: 22.5 mg/kg/injection, schedule: Q01DX011 (ip), vehicle: carboxymethylcellulose (CMC)) 50 % of control and 55 % of control; (dose: 22.5 mg/kg/injection, schedule: Q01DX011 (ip), vehicle: other) 93 % of control. In addition, the T/C was 65 % of control (dose: 24.0 mg/kg/injection, schedule: Q01DX011 (ip), vehicle: carboxymethylcellulose (CMC)); 50 % of control and 59 % of control under setting [8]; 12 % of control (dose: 45.0 mg/kg/injection, schedule: Q01DX011 (ip), vehicle: methylcellulose (MC)); 69 % of control (dose: 45.0 mg/kg/injection, schedule: Q01DX011 (ip), vehicle: other); 63 % of control (dose: 48.0 mg/kg/injection, schedule: Q01DX011 (ip), vehicle: carboxymethylcellulose (CMC)); 43 % of control and 62 % of control (dose: 90.0 mg/kg/injection, schedule: Q01DX011 (ip), vehicle: carboxymethylcellulose (CMC)). Besides, the T/C (dose: 96.0 mg/kg/injection, schedule: Q01DX011 (ip), vehicle: carboxymethylcellulose (CMC)) was 43 % of control.
For the compound `CCn1cnc2ncnc(SCc3ccccc3)c21`, the T/C runs as follows: (dose: 16.0 mg/kg/injection, schedule: Q01DX011 (ip), vehicle: carboxymethylcellulose (CMC)) 107 % of control; under setting [7], 89 % of control; under setting [9], 46 % of control.
On to `CCCCn1cnc2c(SCc3ccccc3Cl)nc(N)nc21`, for which the T/C was 24 % of control under setting [2]; 13 % of control under setting [3]; 5 % of control (dose: 250.0 mg/kg/injection, schedule: Q01DX011 (ip), vehicle: methylcellulose (MC)).
Consider `CCCNc1cc(=O)[nH]c(N)n1`, for which the T/C (dose: 55.0 mg/kg/injection, schedule: Q01DX011 (ip), vehicle: methylcellulose (MC)) is 110 % of control and the T/C (dose: 165.0 mg/kg/injection, schedule: Q01DX011 (ip), vehicle: methylcellulose (MC)) is 41 % of control.
